The values below come from US8426433B2, priority 2007, dated 2013).

Data set [1] concerns endogenous thrombin potential in normal donor plasma (PPP). Briefly: Thrombin generation test (endogenous thrombin potential) in normal donor plasma. Type of data set: biochemical. The note with it: read-out: IC50 (50% reduction in endogenous thrombin potential). An excerpt:
This method was described in detail in many papers (Hemker H C, Giesen P L, Ramjee M, Wagenvoord R, Beguin S. The thrombogram: monitoring thrombin generation in platelet-rich plasma. Thromb. Haemost., 2000; 83(4): 589-591; Hemker H C, AlDieri R, Beguin S. Thrombin generation assays: accruing clinical relevance. Curr. Opin. Hematol., 2004, 11(3):170-175; Hemker H C, Giesen P, AlDieri R, Regnault V, de Smed E, Wagenvoord R, Lecompte T, Beguin S. The calibrated automated thrombogram (CAT): a universal routine test for hyper- and hypocoagulability. Pathophysiol. Haemost. Thromb., 2002, 32(5-6):249-253). The test is used to measure the kinetics and total quantity of active thrombin generated in a plasma sample over a specified time at a standard clotting activation level in the sample. These applicants' method is suitable for measuring thrombin concentration using a slow-action fluorogenic substrate (BOC-Ile-Gly-Arg-AMC), which gives a highly fluorescent product, 7-amino-4-methylcoumarin (AMC), when broken d own by thrombin. The use of a fluorogenic, rather than chromogenic, substrate is dictated by the fact that the fluorescence level in the sample is virtually unaffected by the solid fibrin clot formed in the metering cell, but this is a qualification that restricts the application of a chromogenic substrate (Hemker H C, Giesen P, AlDieri R, Regnault V, de Smed E, Wagenvoord R, Lecompte T, Beguin S. The calibrated automated thrombogram (CAT): a universal routine test for hyper- and hypocoagulability. Pathophysiol. Haemost. Thromb., 2002, 32(5-6):249-253). On the other hand, it is common knowledge that the bulk of thrombin (about 95%) in the sample is generated after the first clot has already formed (Hemker H C, AlDieri R, Beguin S. Thrombin generation assays: accruing clinical relevance. Curr. Opin. Hematol., 2004, 11(3):170-175).
The kinetics of thrombin generation and ultimately loss in plasma after clotting activation is shown in FIG. 1, which illustrates the relationship between concentration of active thrombin in a plasma sample and time. The area under the thrombin generation time curve (in this invention, from 0 to 50 minutes of incubation) is called endogenous thrombin potential (ETP). The curve is further characterized by tmax, the time when thrombin in the sample reaches maximum concentration, Amax, the maximum thrombin concentration in the system, and tlag, the time before clotting commencement, which is conventionally the time when thrombin reaches a concentration of 5 nM.
Obviously, important clotting information is contained in the shape of thrombin concentration to time curves, as well as the integral ETP level. In particular, against the background of low factor and clotting inhibitor concentration, thrombin concentration maximums can be lower and also broader, although the total ETP might not change at all. The presence of additional thrombin inhibitors in plasma must reduce ETP and maximum attainable thrombin concentration, and increase the clotting lag and the time required for thrombin to achieve maximum concentration.
Measurements were taken as follows: 90 microliters of normal donor plasma (PPP), 0 to 20 microliters of the test substance solution, and 20 to 0 microliters of buffering solution (20 mM of HEPES, 140 mM of NaCal, pH 7.5) were deposited in the holes of a 96 hole board so that the total volume of added substance and buffer is always 20 microliters. Whereupon 20 microliters of a fluorogenic substrate solution (at 5 mM initial concentration) was added to each of the board holes, and plasma was heated for 3 to 5 minutes at 37° C. Next, 25 microliters of a clotting activator solution was added simultaneously (using a multichannel pipette) to all the holes. A thromboplastin solution prepared from a standard thromboplastin reagent diluted to 1/250th of its original concentration by the same buffer further containing 80 mM of CaCl2 to measure the prothrombin time (PT) (RENAM, Russia) was used as activator. […]

Another data set can be described thus: Acute toxicity, LD50. As to conditions: mouse, in vivo, mice.
The conditions of data set [2]: Argatroban after clinical testing; cited from earlier work.

Like-named read-outs stand apart in the source and are kept apart here.

On to `Cc1cc(OCC[n+]2ccc(N)nc2)cc(OS(=O)(=O)c2ccccc2)c1` [HC_047s_IOC], for which, in data set [1], the IC50 (commonly the point on the concentration scale where inhibition reaches its midpoint) turned out to be 2.5 µM.
In the case of `Cc1cc(OCC[n+]2ccc(N)cc2)cc(OS(=O)(=O)c2ccccc2)c1` [HC-019s-IOC, 4-amino-1-(2-(3-methyl-5-(benzenesulfonyloxy)phenoxy)ethyl)-pyridinium iodide], in the data set “Acute toxicity, LD50” (0.9% NaCl + cremophor 20%), the 50% lethal dose (LD50) (in general, the dose at which mortality reaches 50%) is over 278 mg/kg. Further, the half-inhibitory concentration (IC50) in data set [1] came out at 0.25 µM.
`Cc1cc(OCC[n+]2ccc(N)cc2)cc(OS(=O)(=O)c2ccccc2F)c1` [HC_037s_IOC]: in data set [1], the concentration for half-maximal inhibition (IC50) is about 0.1 µM.
With `Cc1cc(OCCCSC(=N)N)cc(OS(=O)(=O)c2ccccc2F)c1` [HC_031s_IOC], the IC50 in data set [1] turned out to be 1.24 µM.
The same measure, in the same setting: the same measure for `Cc1ccc(S(=O)(=O)Oc2cc(C)cc(OCC[n+]3ccc(N)cc3)c2)cc1` [HC_038s_IOC]: about 4 µM.
Regarding `Cc1cc(OCCSC(=N)N)cc(OS(=O)(=O)c2ccccc2S(C)(=O)=O)c1` [HC_040s_IOC], in data set [1], the IC50 was determined as 0.8 µM.
Regarding `Cc1cc(OCC[n+]2ccc(N)cc2)cc(OS(=O)(=O)c2ccc(Cl)cc2)c1` [HC_039s_IOC], the IC50 in data set [1] was 0.15 µM.
Still for that read-out and setting: to `Cc1cc(OCCC[n+]2ccc(N)cc2)cc(OS(=O)(=O)c2ccccc2F)c1` [HC_029s_IOC, 4-amino-1-(3-(3-methyl-5-(2-fluorobenzenesulfonyloxy)phenoxy)propyl)-pyridinium iodide] belongs 27 µM; to `Cc1cc(OCCC[n+]2ccc(N)cc2)cc(OS(=O)(=O)c2ccccc2)c1` [HC-016s-IOC, 4-amino-1-(3-(3-methyl-5-(benzenesulfonyloxy)phenoxy)propyl)-pyridinium iodide], about 240 µM.
Regarding `CNc1ccc(S(=O)(=O)N(C)c2ccccc2)cc1NC(=O)CC[n+]1ccc(N)cc1.[Cl-]` [HC_028s_IOC], the LD50 in the data set “Acute toxicity, LD50” (0.9% NaCl + cremophor 20%) amounted to 257 ± 31 mg/kg. In addition, the half-inhibitory concentration (IC50) in data set [1] is about 9 µM.
Turning to `Cc1cc(OCC[n+]2ccsc2N)cc(OS(=O)(=O)c2ccccc2Cl)c1` [HC_045s_IOC], in data set [1], the IC50 amounted to 16 µM.
As to `Nc1cc[n+](CCOc2cccc(NS(=O)(=O)c3ccccc3)c2)cc1` [HC_041s_IOC], the IC50 in data set [1] is 1.6 µM.
In the case of `Cc1cc(OCCCSC(=N)N)cc(OS(=O)(=O)c2ccccc2)c1.I` [HC-018s-IOC, 3-(3-methyl-5-(benzenesulfonyloxy)phenoxy)propyl-isothiouronium iodide], the LD50 in the data set “Acute toxicity, LD50” (0.9% NaCl + cremophor 20%) was under 441 mg/kg.
In the case of `C/N=C(/N)SCCCOc1cc(C)cc(OS(=O)(=O)c2ccccc2Cl)c1` [HC_032s_IOC], the half-inhibitory concentration (IC50) in data set [1] came to 25.2 µM.
Turning to `CC1CNc2c(cccc2S(=O)(=O)N[C@@H](CCCNC(=N)N)C(=O)N2CC[C@@H](C)C[C@@H]2C(=O)O)C1` (stereo partly drawn) [Argatroban], the LD50 in data set [2] is reported as 475 mg/kg.
On to `C/N=C(/N)CSCCCOc1cc(C)cc(OS(=O)(=O)c2ccccc2Cl)c1` [HC_033s_IOC], for which the IC50 in data set [1] is 0.527 µM.
Take `Cc1cc(OCCSC(=N)N)cc(OS(=O)(=O)c2ccccc2)c1` [HC-020s-IOC, 2-(3-methyl-5-(benzenesulfonyloxy)phenoxy)ethyl-isothiouronium iodide]: the LD50 in “Acute toxicity, LD50” (0.9% NaCl + cremophor 20%) is over 1110 mg/kg.
For the compound `Cc1cc(OCCC[n+]2ccsc2N)cc(OS(=O)(=O)c2ccccc2F)c1` [HC_030s_IOC], in data set [1], the IC50 was about 8.6 µM.
Compound `Cc1cc(OCCCn2ccsc2=N)cc(OS(=O)(=O)c2ccccc2)c1` showed an LD50 in “Acute toxicity, LD50” (0.9% NaCl) of over 199 mg/kg. In addition, the IC50 in data set [1] was 24.8 µM.
On to `Cc1cc(OCCC[n+]2ccc(N)cc2)cc(OS(=O)(=O)c2ccccc2Cl)c1` [HC-023s-IOC], for which the IC50 in data set [1] worked out at 40 µM.
As for `Cc1cc(OCC[n+]2ccc(N)cc2)cc(OS(=O)(=O)c2ccccc2S(C)(=O)=O)c1` [HC_036s_IOC], in data set [1], the IC50 amounted to 0.158 µM.
